The source of these data is patent US7371729B2, “Boronic acid salts useful in parenteral formulations” (Trigen Limited, priority 2002, dated 2008).

Data set [1] is described as follows: Stability: HPLC-PDA assay before and after drying over phosphorus pentoxide for 1 week. In kind it is physicochemical. On the procedure:
An assay of TRI 50c and its sodium and lysine salts before and after drying.
For sample analysis, 5 mg of dried and non-dried material was weighed in a 5 mL volumetric flask and dissolved in 1 mL acetonitrile and filled up with demineralised water to 5 mL.
The quantitative evaluation was performed using an HPLC-PDA method.

Data set [2] can be described thus: i.v. pharmacokinetics in rats. The class given is in vivo. The following applies: plasma, rat, 1.0 mg/kg iv; for half-life: read-out: Elimination half life; for MRT: read-out: Mean Residence Time (converted). On the procedure:
Rats, body weight circa 250-300 g were used.
Both compounds were given at a dose of 1.0 mg/kg iv.
This was dosed at 1.33 ml/kg (equivalent to 30 mg/kg).

Data set [3] has as its system platelet procoagulant activity. The data set can be described thus: Inhibition of platelet procoagulant activity (washed platelets, prothrombin activation). To be noted: agonist Thrombin (1.15 nM). The class given is cell-based. From the text: Platelet pro-coagulant activity may be observed as the increase, in rate of activation of prothrombin by factor Xa in the presence of factor Va upon the addition of platelets pretreated with thrombin, caused by thrombin alone, collagen alone or a mixture of thrombin and collagen. This property is due to an increase in anionic phospholipid on the surface of the platelet with concomitant release of microvesicle from the surface. This is an essential physiological reaction and people whose platelets have reduced ability to generate procoagulant activity (Scott syndrome) show an increased tendency for bleeding.
Washed platelets were treated with either 1.15 nM thrombin, 23 μg/ml collagen or a mixture of both at the same concentration at 37° C. TRI 50b was added either for 1 minute prior to the addition of activator or immediately after the incubation with activator. Platelet procoagulant activity was determined as described previously (Goodwin C A et al, Biochem J. 1995 8, 308: 15-21).

In a further data set the test system is washed platelets. The data set is described as follows: Aggregation of washed platelets. In kind it is cell-based.
For a further data set, the system named is platelet rich thrombus. The data set can be described thus: Rabbit extracorporeal shunt model. In kind it is in vivo. An excerpt:
The technique describes an animal model in which a platelet rich thrombus is produced. The activity of TRI 50b and heparin are compared.
The carotid artery and jugular vein of anaesthetised rabbits were used to create an extracorporeal circuit containing a suspended foreign surface (silk thread). Thrombus deposition is initiated by creation of high sheer stress turbulent arterial blood flow, platelet activation, followed by coagulation in the presence of thrombogenic surfaces. Histopathological studies have shown that the thrombus is platelet rich.
NZW rabbits (males 2.5-3.5 kg) were used. The animals were allowed food and water up to the induction of anaesthesia.
Animals were premedicated with […] (Hypnorm) 0.15 ml total by intramuscular injection. General anaesthesia was induced with methohexitone (10 mg/ml) to effect, followed by endotracheal intubation. Anaesthesia was maintained with isoflurane (1-2.0%) carried in oxygen/nitrous oxide.
The animals were placed in dorsal recumbency and the ventral cervical region prepared for surgery. The left carotid artery and right jugular vein were exposed. The artery was cannulated with a large Portex® catheter (yellow gauge), cut to a suitable length. The vein was cannulated with a Silastic® catheter. The shunt comprised of a 5 cm length of ‘auto analyser’ line (purple/white gauge). Joins to the shunt on the arterial side were made with intermediate size Silastic® tubing. The shunt was filled with saline before exposure to the circulation. The right femoral artery was cannulated for the measurement of blood pressure.
The central section of the shunt contained a thread 3 centimetres in length. This consisted of 000 gauge Gutterman sewing silk so as to give four strands with a single knot at the end. (The knot section was outside the shunt).
Blood flow velocity was determined by use of ‘Doppler’ probes (Crystal Biotech). A silastic probe was positioned over the carotid artery at the point of insertion of the arterial catheter. Flow was recorded on a chart recorder using heat sensitive paper.

A short description of another data set: Rat tail bleeding model. The class given is in vivo. The protocol:
Bleeding times were determined in a rat tail bleeding model following intravenous administration of heparin and TRI 50b. The doses employed were chosen on the basis of their efficacy in the rat Wessler and dynamic models and were as follows:
Rats were anaesthetised with sodium pentabarbitone at 60 mg/kg (2.0 ml/kg of 30 mg/ml solution by ip. injection). Supplemental anaesthetic was given ip. as required.
A jugular vein was cannulated for the administration of test compound. The trachea was also cannulated with a suitable cannula and the animals allowed to breathe ‘room air’ spontaneously.
These were given in the appropriate vehicle at 1.0 ml/kg intravenously. Heparin was administered in saline, whilst TRI 50b was dissolved in ethanol, and then the resultant solution added to water for injection (1 part ethanol to 5 parts water).
Two minutes following compound administration the distal 2 mm of the animal's tail was sectioned with a new scalpel blade and the tail immersed in warm saline (37° C.) contained in a standard ‘universal’ container, so that the blood stream was clearly visible. The bleeding time recording was started immediately following transection until the cessation of blood flow from the tip of the tail.

Data set [4] is described as follows: Hydrolysis of TRI 50b in acid conditions (HPLC assay). To be noted: for example of an HPLC assay. In kind it is physicochemical. From the text:
It has been discovered that TRI 50b tends to hydrolyse.

The target of the next data set is human α-thrombin (Homo sapiens, UniProt P00734). The following applies: reported by J. Deadman et al, J. Med. Chem. 1995; cited from earlier work.
The nature of data set [5]: Tolerability in beagle dogs after i.v. dose. In kind it is in vivo. The following applies: dog, 1.0 mg/kg i.v., total duration of the study. On the procedure:
Blood samples were taken into 3.8% tri-sodium citrate (1+8) at pre dose, 2, 5, 10, 20, 30, minutes post dose and then at 1, 2, 3, 4, 6, 8, 12 and 24 hours post dose. Plasma was prepared by centrifugation and frozen at minus 20° C. pending analysis.

The next data set addresses T1, Thrombin (Homo sapiens, UniProt P00734).
T1 construct: Thrombin obtained from HTI, via Cambridge Bioscience; purchased HTI, via Cambridge Bioscience
The data set is described as follows: Thrombin amidolytic assay (Vmax, S2238). In kind it is biochemical. To be noted: FIG. 1; TRI 50b as external control. On the procedure:
Chromogenic substrate S2238 dissolved to 4 mM (25 mg+10 mI) in water. Diluted to 50 μM with assay buffer for use in assay at 5 μM. (S2238 is H-D-Phe-Pip-Arg-pNA).
Thrombin obtained from HTI, via Cambridge Bioscience, and aliquoted at 1 mg/ml with assay buffer. Dilute to 100 ng/ml with assay buffer and then a further 1 in 3 for use in the assay.

The structures appear in SMILES notation. pIC50, pKi: −log10 of the molar value. Structures can show the parent of a compound that is named as a salt. Where two headings read alike, the source gives them in different places.

`COCCC[C@H](NC(=O)[C@@H]1CCCN1C(=O)[C@@H](Cc1ccccc1)NC(=O)OCc1ccccc1)B(O)O` [TRI 50c, Cbz-(R)-Phe-(S)-Pro-(R)-boroMpg-OH]: the “Purity (% area)” value in data set [1] (non-dried) is 85.54 % area. In data set [1] (non-dried, 5 mg in 5 mL), this compound yielded an Amount of 947.3 µg/mL. Besides, in data set [2], the clearance (usually a measure of how efficiently the substance is removed, as volume per time) is 11.3 mL/min/kg; the half-life (in general, the time needed for the level to fall by half in the phase considered) stood at 36.6 min; the MRT is 45 min.
For the compound `COCCC[C@H](NC(=O)[C@@H]1CCCN1C(=O)[C@@H](Cc1ccccc1)NC(=O)OCc1ccccc1)B1OC(C)(C)C(C)(C)O1` [TRI 50b, Cbz-(R)-Phe-Pro-BoroMpg-OPinacol], the pIC50 – broadly, −log10 of the IC50, conventionally taken in molar units – in data set [3] (TRI 50b added 1 minute prior to activator, read-out: IC50 plus pre-incubation) was 8.10; in data set [3] (TRI 50b added after incubation with activator, read-out: IC50 without incubation), 5.52. In addition, the “effect on ADP, collagen or epinephrine induced aggregation of washed platelets” value in the data set with washed platelets is listed as “does not have an effect”. Further, the “ANTITHROMBOTIC ACTIVITY” value in the data set with platelet rich thrombus (3.0 mg/kg iv) and in the data set with platelet rich thrombus (10 mg/kg iv) was “Active” in each case. In addition, in the data set on platelet rich thrombus (3 mg/kg to 10 mg/kg iv), the “bleeding in shunt model” value is “without bleeding”. For the same compound, the entries for the “Bleeding time min (±SEM)” value in “Rat tail bleeding model” (5 mg/kg iv) and in “Rat tail bleeding model” (10 mg/kg iv) were 11.3 ± 1.2 min and 30.4 ± 5.2 min, respectively. Also, in data set [2], the clearance amounted to 10 mL/min/kg. Besides, the half-life in [2] came to 35 min. Further, in data set [2], the MRT was 46 min. In data set [4], the “hydrolysis to the acid form, half life” value is listed as “short half life”. Further, the pKi (as a rule, −log10 of the Ki, conventionally taken in molar units) at human α-thrombin is 8.15.
Consider `COCCC[C@H](NC(=O)[C@@H]1CCCN1C(=O)[C@@H](Cc1ccccc1)NC(=O)OCc1ccccc1)B(O)O` [TRI 50c sodium salt, Cbz-(R)-Phe-(S)-Pro-(R)-Mpg-B(OH)2 monosodium salt], for which the “stability: effect of drying on purity” value in data set [1] (in words) was “not significantly reduced”. Further, the tolerability result in data set [5] is “tolerated well with no adverse events”.
For `COCCC[C@H](NC(=O)[C@@H]1CCCN1C(=O)[C@@H](Cc1ccccc1)NC(=O)OCc1ccccc1)B([O-])O.COCCC[C@H](NC(=O)[C@@H]1CCCN1C(=O)[C@@H](Cc1ccccc1)NC(=O)OCc1ccccc1)B([O-])O.[Mg+2]` [magnesium salt of TRI 50c], the “activity in thrombin amidolytic assay (Vmax)” value on Thrombin is “same activity as TRI 50b”.
